The source of these data is ChEMBL document CHEMBL3046682, “Synthesis of lactosylated piperazinyl porphyrins and their hepatocyte-selective targeting” (Med Chem Res, 2007).

Data set [1] relates to Liver. Briefly: Biodistribution in tumor-bearing Mus musculus KM (mouse) liver at 10 mg/kg, ip after 3 to 24 hr by fluorescence assay. In kind it is ADME, organism-based. Details: dose 10 mg/kg, route intraperitoneal; call rule not given here. The conditions noted are these: in vivo.
The test system of data set [2] is Liver. Briefly: Biodistribution in tumor-bearing Mus musculus KM (mouse) liver at 10 mg/kg, ip after 144 hr by fluorescence assay. Type of data set: ADME, organism-based. Details: dose 10 mg/kg, route intraperitoneal. The following applies: in vivo.
In data set [3] the test system is Zone of skin. Briefly: Biodistribution in tumor-bearing Mus musculus KM (mouse) skin at 10 mg/kg, ip after 3 to 24 hr by fluorescence assay. In kind it is ADME, organism-based. Details: dose 10 mg/kg, route intraperitoneal. The conditions noted are these: in vivo.
Data set [4] is described as follows: Cytotoxicity against Homo sapiens (human) MCG cells assessed as cell death at 6.25 ug/ml after 18 hr by MTT assay in absence of light. Type of data set: functional.
Data set [5] in a line: Cytotoxicity against Homo sapiens (human) HNE1 cells assessed as cell death after 48 hr by MTT assay in absence of light. Type of data set: functional. The following applies: HNE1, 48 h, read-out: ID50 (the source's name).
Data set [6] can be described thus: Cytotoxicity against Homo sapiens (human) MCG cells assessed as cell death after 48 hr by MTT assay in absence of light. In kind it is functional. The following applies: read-out: ID50 (the source's name). (In general: Tetrazolium dyes change colour on reduction, which living cells bring about.)
Data set [7] in a line: Cytotoxicity against Homo sapiens (human) Bel7404 cells assessed as cell death at 6.25 ug/ml after 18 hr by MTT assay in absence of light. In kind it is functional, BEL-7404.
A short description of data set [8]: Cytotoxicity against Homo sapiens (human) Bel7404 cells assessed as cell death after 48 hr by MTT assay in absence of light. The following applies: BEL-7404, 48 h, read-out: ID50 (the source's name). In kind it is functional.
Data set [9] can be described thus: Photocytotoxicity against Homo sapiens (human) HNE1 cells assessed as cell death at 6.25 ug/ml after 18 hr by MTT assay in presence of light. Type of data set: functional.
Data set [10] is described as follows: Cytotoxicity against Homo sapiens (human) HNE1 cells assessed as cell death at 6.25 ug/ml after 18 hr by MTT assay in absence of light. In kind it is functional.
Data set [11] in a line: Photocytotoxicity against Homo sapiens (human) Bel7404 cells assessed as cell death at 6.25 ug/ml after 18 hr by MTT assay in presence of light. Type of data set: functional, BEL-7404.
Data set [12] can be described thus: Photocytotoxicity against Homo sapiens (human) MCG cells assessed as cell death at 6.25 ug/ml after 18 hr by MTT assay in presence of light. Type of data set: functional.
Data set [13] can be described thus: Solubility of the compound in water. Type of data set: physicochemical. The following applies: buffer.

≈ marks a conversion by molar mass, not a printed value.

`O=C([C@H](O)[C@@H](O)[C@H](O[C@@H]1O[C@H](CO)[C@H](O)[C@H](O)[C@H]1O)[C@H](O)CO)N1CCN(c2ccc(-c3c4nc(c(-c5ccc(N6CCN(C(=O)[C@H](O)[C@@H](O)[C@H](O[C@@H]7O[C@H](CO)[C@H](O)[C@H](O)[C@H]7O)[C@H](O)CO)CC6)cc5)c5ccc([nH]5)c(-c5ccc(N6CCN(C(=O)[C@H](O)[C@@H](O)[C@H](O[C@@H]7O[C@H](CO)[C@H](O)[C@H](O)[C@H]7O)[C@H](O)CO)CC6)cc5)c5nc(c(-c6ccc(N7CCN(C(=O)[C@H](O)[C@@H](O)[C@H](O[C@@H]8O[C@H](CO)[C@H](O)[C@H](O)[C@H]8O)[C@H](O)CO)CC7)cc6)c6ccc3[nH]6)C=C5)C=C4)cc2)CC1`: the Drug uptake entry is “Active” in data set [1], “Not Active” in [2] and “Not Active” in [3].
As to `O=C([C@H](O)[C@@H](O)[C@H](O[C@@H]1O[C@H](CO)[C@H](O)[C@H](O)[C@H]1O)[C@H](O)CO)N1CCN(c2ccc(-c3c4nc(c(-c5ccccc5)c5ccc([nH]5)c(-c5ccccc5)c5nc(c(-c6ccccc6)c6ccc3[nH]6)C=C5)C=C4)cc2)CC1`, the Activity in data set [4] worked out at 8%; in data set [7], 8%; in data set [9], 75%; in data set [10], 8%; in data set [11], 75%; in [12], 75%. In addition, the IC50 in data set [5] stood at 46 µg/mL (≈ 44.3 µM); in [6], 48 µg/mL (≈ 46.2 µM); in [8], 43 µg/mL (≈ 41.4 µM).
For `C1=Cc2nc1c(-c1ccccc1)c1nc(c(-c3ccccc3)c3ccc([nH]3)c(-c3ccccc3)c3ccc([nH]3)c2-c2ccccc2)C=C1` [TETRAPHENYLPORPHYRIN], the IC50 in data set [5], in data set [6] and in data set [8] was greater than 50 µg/mL throughout. In addition, the solubility result in [13] is recorded as “Insoluble”.
